The results in this text go back to patent publication US12195429B2, “Cannabinoid derivatives” (CANOPY GROWTH CORPORATION, priority 2019, dated 2025).

One experiment deals with T1, human CB2 receptor (Homo sapiens, UniProt P34972).
T1 construct: host or cells: CHO-K1
Kind of experiment: CB2 radioligand competitive binding assay ([3H]CP 55,940 displacement). Particulars: for Selectivity CB2: fold difference in binding affinity, CB2 over CB1, 1.00 = about the same affinity for both receptors.

In experiment [1] the target is T2, human CB1 receptor (Homo sapiens, UniProt P21554).
T2 construct: host or cells: CHO-K1
Briefly: PathHunter β-arrestin functional assay, CB1 receptor, antagonist mode. The class given is cell-based.

Experiment [2] deals with T2, human CB1 receptor. Kind of experiment: CB1 radioligand competitive binding assay ([3H]CP 55,940 displacement). The note with it: for Selectivity CB1: fold difference in binding affinity, CB1 over CB2, 1.00 = about the same affinity for both receptors.
The target of experiment [3] is T2, human CB1 receptor. Briefly: PathHunter β-arrestin functional assay, CB1 receptor, agonist mode. The class given is cell-based. Particulars: PathHunter CHO-K1 CNR1 β-arrestin cells; normalized to CP55,940.
Where [4] appears, read: read-out: IC50 towards human CB1 receptor, antagonist mode.

T1 sequence (P34972 whole entry): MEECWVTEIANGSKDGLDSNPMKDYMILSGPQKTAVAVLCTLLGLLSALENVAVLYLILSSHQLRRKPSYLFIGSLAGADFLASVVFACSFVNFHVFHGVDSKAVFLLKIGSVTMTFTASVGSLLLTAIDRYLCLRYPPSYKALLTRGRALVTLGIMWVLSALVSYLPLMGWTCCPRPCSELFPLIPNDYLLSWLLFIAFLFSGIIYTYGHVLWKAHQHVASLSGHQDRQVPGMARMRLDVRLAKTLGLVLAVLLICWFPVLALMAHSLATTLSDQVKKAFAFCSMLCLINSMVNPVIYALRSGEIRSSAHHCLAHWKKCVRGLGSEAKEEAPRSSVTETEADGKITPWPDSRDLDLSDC
T2 sequence (P21554 whole entry): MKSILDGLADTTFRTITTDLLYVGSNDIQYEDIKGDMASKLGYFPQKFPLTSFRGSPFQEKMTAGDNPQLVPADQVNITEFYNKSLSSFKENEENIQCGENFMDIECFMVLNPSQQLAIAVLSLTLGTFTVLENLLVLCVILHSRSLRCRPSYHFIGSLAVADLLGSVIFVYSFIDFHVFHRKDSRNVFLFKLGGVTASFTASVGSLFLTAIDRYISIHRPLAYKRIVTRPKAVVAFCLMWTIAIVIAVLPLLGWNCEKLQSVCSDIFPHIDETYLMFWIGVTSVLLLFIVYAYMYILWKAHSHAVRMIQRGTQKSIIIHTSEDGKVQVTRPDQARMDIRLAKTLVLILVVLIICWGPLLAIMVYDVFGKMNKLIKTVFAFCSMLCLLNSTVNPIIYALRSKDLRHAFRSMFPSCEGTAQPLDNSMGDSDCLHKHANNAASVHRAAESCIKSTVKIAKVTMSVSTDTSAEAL

Usually IC50 stands for the concentration that inhibits the measured activity by half. On to `CCCCCc1cc(O)c(C2C=C(C)CCC2)c(O)c1-c1nnn[nH]1` (centres unmarked) [Compound 3c, 5′-methyl-4-pentyl-3-(1H-tetrazol-5-yl)-1′,2′,3′,4′-tetrahydro-[1,1′-biphenyl]-2,6-diol], for which the results for the IC50 at human CB2 receptor, at human CB1 receptor [1] (setting [4]) and on human CB1 receptor [2] were 1000 to 4990 nM, 1000 to 3000 nM and 1000 to 4990 nM, respectively.
Regarding `C=C(C)[C@@H]1CCC(C)=C[C@H]1c1c(O)cc(CCCCC)c(-c2nnn[nH]2)c1O` [Compound 3d, 5′-methyl-4-pentyl-2′-(prop-1-en-2-yl)-3-(1H-tetrazol-5-yl)-1′,2′,3′,4′-tetrahydro-[1,1′-biphenyl]-2,6-diol], at human CB2 receptor, the IC50 is 1000 to 4990 nM and the “Selectivity CB2” value came out at 1.00 fold. For the same molecule, on human CB1 receptor [2], the IC50 lay in the range of 1000 to 4990 nM and the “Selectivity CB1” value turned out to be 1.00 fold.
As for `CCCCCc1cc(O)c(C2C=C(C)CCC2)c(O)c1-c1cccnc1` (centres unmarked) [Compound 12c, 5′-methyl-4-pentyl-3-(pyridin-3-yl)-1′,2′,3′,4′-tetrahydro-[1,1′-biphenyl]-2,6-diol], the IC50 is 500 to 990 nM on human CB2 receptor and above 5000 nM at human CB1 receptor [2]. For the same molecule, on human CB2 receptor, the “Selectivity CB2” value worked out at 7.27 fold.
For `C=C(C)[C@@H]1CCC(C)=C[C@H]1c1c(O)cc(CCCCC)c(-c2cccnc2)c1O` [Compound 12d, 5′-methyl-4-pentyl-2′-(prop-1-en-2-yl)-3-(pyridin-3-yl)-1′,2′,3′,4′-tetrahydro-[1,1′-biphenyl]-2,6-diol] the same measures were 1000 to 4990 nM, 1000 to 4990 nM and 1.39 fold.
With `CCCCCc1cc(O)c(C2C=C(C)CCC2)c(O)c1-c1cncnc1` (centres unmarked) [Compound 13c, 5′-methyl-4-pentyl-3-(pyrimidin-5-yl)-1′,2′,3′,4′-tetrahydro-[1,1′-biphenyl]-2,6-diol], the IC50 on human CB2 receptor and on human CB1 receptor [2] was 1000 to 4990 nM in each case.
Take `C=C(C)[C@@H]1CCC(C)=C[C@H]1c1c(O)cc(CCCCC)c(-c2cncnc2)c1O` [Compound 13d, 5′-methyl-4-pentyl-2′-(prop-1-en-2-yl)-3-(pyrimidin-5-yl)-1′,2′,3′,4′-tetrahydro-[1,1′-biphenyl]-2,6-diol]: the IC50 at human CB2 receptor and at human CB1 receptor [2] was 1000 to 4990 nM in each case. Also, the “Selectivity CB2” value on human CB2 receptor turned out to be 2.35 fold.
In the case of `C=C(C)[C@@H]1CCC(C)=C[C@H]1c1c(O)cc(CCCCC)c(-c2ccncc2)c1O` [Compound 14d, 5′-methyl-4-pentyl-2′-(prop-1-en-2-yl)-3-(pyridin-4-yl)-1′,2′,3′,4′-tetrahydro-[1,1′-biphenyl]-2,6-diol], on human CB2 receptor, the IC50 is 1000 to 4990 nM and the “Selectivity CB2” value was determined as 1.00 fold. At human CB1 receptor [2], the IC50 was 1000 to 4990 nM and the “Selectivity CB1” value was 1.00 fold.
As to `CCCCCc1cc(O)c(C2C=C(C)CCC2)c(O)c1-c1ccco1` (centres unmarked) [Compound 15c, 3-(furan-2-yl)-5′-methyl-4-pentyl-1′,2′,3′,4′-tetrahydro-[1,1′-biphenyl]-2,6-diol], the figures for the IC50 at human CB2 receptor, at human CB1 receptor [1] (setting [4]) and on human CB1 receptor [2] were 1000 to 4990 nM, 1000 to 3000 nM and 1000 to 4990 nM, respectively.
Take `C=C(C)[C@@H]1CCC(C)=C[C@H]1c1c(O)cc(CCCCC)c(-c2ccco2)c1O` [Compound 15d, 3-(furan-2-yl)-5′-methyl-4-pentyl-2′-(prop-1-en-2-yl)-1′,2′,3′,4′-tetrahydro-[1,1′-biphenyl]-2,6-diol]: on human CB2 receptor, the IC50 is 1000 to 4990 nM and the “Selectivity CB2” value stood at 3.57 fold. The molecule further gave an IC50 on human CB1 receptor [2] above 5000 nM.
As to `CCCCCc1cc(O)c(C2C=C(C)CCC2)c(O)c1-c1cccs1` (centres unmarked) [Compound 16c, 5′-methyl-4-pentyl-3-(thiophen-2-yl)-1′,2′,3′,4′-tetrahydro-[1,1′-biphenyl]-2,6-diol], the IC50 on human CB2 receptor lay in the range of 500 to 990 nM; at human CB1 receptor [1] (setting [4]) it was 1000 to 3000 nM; on human CB1 receptor [2], 1000 to 4990 nM. In addition, the “Selectivity CB2” value at human CB2 receptor is listed as 2.22 fold. For the same molecule, the “activity towards the human CB1 receptor, agonist mode” value at human CB1 receptor [3] is on record as “minimal to no activity”.
Turning to `C=C(C)[C@@H]1CCC(C)=C[C@H]1c1c(O)cc(CCCCC)c(-c2cccs2)c1O` [Compound 16d], the IC50 is below 500 nM at human CB2 receptor and 1000 to 4990 nM on human CB1 receptor [2]. Further, the “Selectivity CB2” value on human CB2 receptor was found to be 7.50 fold.
Consider `CCCCCc1cc(O)c(C2C=C(C)CCC2)c(O)c1-c1ccsc1` (centres unmarked) [Compound 17c, 5′-methyl-4-pentyl-3-(thiophen-3-yl)-1′,2′,3′,4′-tetrahydro-[1,1′-biphenyl]-2,6-diol], for which the figures for the IC50 at human CB2 receptor, at human CB1 receptor [1] (setting [4]) and on human CB1 receptor [2] were 1000 to 4990 nM, 1000 to 3000 nM and 1000 to 4990 nM, respectively.
For the molecule `C=C(C)[C@@H]1CCC(C)=C[C@H]1c1c(O)cc(CCCCC)c(-c2ccsc2)c1O` [Compound 17d], the 50% inhibitory concentration (IC50) on human CB2 receptor is below 500 nM; against human CB1 receptor [1], 1000 to 3000 nM; at human CB1 receptor [2] it was 1000 to 4990 nM. Further, the “Selectivity CB2” value on human CB2 receptor worked out at 33.33 fold. In addition, on human CB1 receptor [3], the “activity towards the human CB1 receptor, agonist mode” value is listed as “minimal to no activity”.
As to `C=C(C)[C@@H]1CCC(C)=C[C@H]1c1c(O)cc(CCCCC)c(-c2ccnn2C)c1O` [Compound 33d, 5′-methyl-3-(1-methyl-1H-pyrazol-5-yl)-4-pentyl-2′-(prop-1-en-2-yl)-1′,2′,3′,4′-tetrahydro-[1,1′-biphenyl]-2,6-diol], at human CB2 receptor, the IC50 was in the range of 1000 to 4990 nM and the “Selectivity CB2” value is recorded as 1.00 fold. On human CB1 receptor [2], the IC50 is 1000 to 4990 nM and the “Selectivity CB1” value is given as 1.00 fold.
For the molecule `C=C(C)[C@@H]1CCC(C)=C[C@H]1c1c(O)cc(CCCCC)c(-c2cc3ccccc3s2)c1O` [Compound 34d, 4-(benzothiophen-2-yl)-2-[6-isopropenyl-3-methyl-cyclohez-2-en-1-yl]-5-pentyl-benzene-1,3-diol], the results for the IC50 at human CB2 receptor, at human CB1 receptor [1] (setting [4]) and at human CB1 receptor [2] were below 500 nM, 1000 to 3000 nM and 1000 to 4990 nM, respectively. For the same molecule, the “Selectivity CB2” value on human CB2 receptor was 7.22 fold. The “activity towards the human CB1 receptor, agonist mode” value at human CB1 receptor [3] is “minimal to no activity”.
Regarding `C=C(C)[C@@H]1CCC(C)=C[C@H]1c1c(O)cc(CCCCC)c(-c2ccnc(C)c2)c1O` [Compound 35d, 2-(6-isopropenyl-3-methyl-cyclohex-2-en-1-yl)-4-(2-methyl-4-pyridyl)-5-pentyl-benzene-1,3-diol], the IC50 at human CB2 receptor and at human CB1 receptor [2] was 1000 to 4990 nM in each case. The “Selectivity CB2” value on human CB2 receptor worked out at 1.60 fold.
On human CB2 receptor, `C=C(C)[C@@H]1CCC(C)=C[C@H]1c1c(O)cc(CCCCC)c(-c2c(C)noc2C)c1O` [Compound 36d, 3-(3,5-dimethylisoxazol-4-yl)-5′-methyl-4-pentyl-2′-(prop-1-en-2-yl)-1′,2′,3′,4′-tetrahydro-[1,1′-biphenyl]-2,6-diol] showed an IC50 of 1000 to 4990 nM. Besides, on human CB1 receptor [2], the IC50 lay in the range of 1000 to 4990 nM and the “Selectivity CB1” value stood at 2.22 fold.
Turning to `CCCCCc1cc(OC)c(C2C=C(C)CCC2)c(OC)c1-c1cccc(N2CCOCC2)c1` (centres unmarked) [Compound 38c, 4-(2′,4′-dimethoxy-5″-methyl-6′-pentyl-1″,2″,3″,4″-tetrahydro-[1,1′:3′,1″-terphenyl]-3-yl)morpholine], at human CB2 receptor, the IC50 is below 500 nM and the “Selectivity CB2” value is reported as 19.05 fold. This molecule also yielded an IC50 on human CB1 receptor [2] below 500 nM.
With `CCCCCc1cc(OC)c(C2C=C(C)CCC2)c(OC)c1-c1cccnc1` (centres unmarked) [Compound 39c, 3-(2,6-dimethoxy-5′-methyl-4-pentyl-1′,2′,3′,4′-tetrahydro-[1,1′-biphenyl]-3-yl)pyridine], on human CB2 receptor, the IC50 is above 5000 nM and the “Selectivity CB2” value came out at 1.47 fold. In addition, the IC50 on human CB1 receptor [2] was above 5000 nM.
Consider `CCCCCc1cc(OC)c(C2C=C(C)CCC2)c(OC)c1-c1ccccc1` (centres unmarked) [Compound 40c, 2′,6′-dimethoxy-5-methyl-4′-pentyl-1,2,3,4-tetrahydro-1,1′:3′,1″-terphenyl], for which the IC50 at human CB2 receptor is 1000 to 4990 nM; on human CB1 receptor [2], above 5000 nM. In addition, the “Selectivity CB2” value at human CB2 receptor was 1.79 fold.
With `C=C(C)[C@@H]1CCC(C)=C[C@H]1c1c(O)cc(CCCCC)c(-c2cn[nH]c2)c1O` [Compound 41d, 5′-methyl-4-pentyl-2′-(prop-1-en-2-yl)-3-(1H-pyrazol-4-yl)-1′,2′,3′,4′-tetrahydro-[1,1′-biphenyl]-2,6-diol], the IC50 on human CB2 receptor and at human CB1 receptor [2] was 1000 to 4990 nM in each case. Also, on human CB2 receptor, the “Selectivity CB2” value was 1.60 fold.
